Target: T1, excitatory DREADD (Homo sapiens, UniProt P20309, A239G/Y149C)
T1 construct: host or cells: ILA CRH+ neurons of CRH-Cre mice, Cre-dependent AAV2/5 transduction in vivo
Assay: c-fos / mCherry overlap in ILA after familiar animal presentation, excitatory DREADD
Type: in vivo, CRH-Cre mice
Details: CNO i.p. 30 min before familiar animal presentation; vs. saline
Protocol: Mice were anesthetized using isoflurane then perfused in the heart with 10 mL saline and their brains were quickly extracted and incubated in 4% PFA overnight. After 1 h washing in PBS, 60 µm slices were prepared using a Leica VT1000S vibratome (Leica Biosystems). Unless indicated otherwise, slices were permeabilized for 2h in PBS with 0.5% Triton-X100 (T9284, Sigma-Aldrich) in PBS before being incubated overnight at 4°C with primary antibodies diluted in PBS with 0.5% Triton-X in PBS. The slices were washed in PBS for 1 h then incubated overnight at 4°C with secondary antibodies from Thermo-Fisher Scientific at a concentration of 1:500 diluted in PBS with 0.1% Triton-X. Hoechst counterstain was applied (Hoechst 33342 at 1:1000 for 30 min in PBS at RT) prior to mounting the slice using fluoromount (Sigma-Aldrich). Images were acquired using inverted confocal microscopes (Ism 900, Zeiss and SPII, Leica) or an epifluorescent microscope (Thunder, Leica). For post-hoc immunocytochemistry after patch-clamp recordings, slices were fixed for 1 h in PBS with 4% PFA and streptavidin was applied during secondary incubation. • For mRuby and GFP labelling, primary incubation was performed overnight at 4°C with rabbit anti-RFP (1:500, Rockland Antibody, #600-401-379) and chicken anti-GFP (1:1000, Aves, #GFP-1020) antibodies. […]

T1 sequence (P20309 whole entry Y149C/A239G): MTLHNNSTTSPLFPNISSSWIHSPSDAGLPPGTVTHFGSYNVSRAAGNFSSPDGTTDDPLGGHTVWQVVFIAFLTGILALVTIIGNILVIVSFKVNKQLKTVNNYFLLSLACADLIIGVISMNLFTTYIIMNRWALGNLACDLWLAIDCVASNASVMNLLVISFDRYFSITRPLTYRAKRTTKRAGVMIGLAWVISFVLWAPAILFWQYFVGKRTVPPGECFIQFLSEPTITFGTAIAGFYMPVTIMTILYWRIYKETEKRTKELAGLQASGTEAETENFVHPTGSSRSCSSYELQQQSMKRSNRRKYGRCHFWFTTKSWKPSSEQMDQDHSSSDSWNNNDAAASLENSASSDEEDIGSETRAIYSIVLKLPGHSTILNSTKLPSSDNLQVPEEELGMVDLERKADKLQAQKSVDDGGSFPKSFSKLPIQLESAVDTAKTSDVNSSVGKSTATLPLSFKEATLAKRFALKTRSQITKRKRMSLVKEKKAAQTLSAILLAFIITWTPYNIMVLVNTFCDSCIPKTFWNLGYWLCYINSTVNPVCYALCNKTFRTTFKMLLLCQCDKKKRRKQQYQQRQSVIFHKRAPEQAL

C[N+]1([O-])CCN(C2=Nc3cc(Cl)ccc3Nc3ccccc32)CC1 [CNO, clozapine N-oxide]
c-fos/mCherry+ overlap in ILA: increased c-fos/mCherry+ overlap
